# In US9700546B2, “Trivalent chromium compounds, compositions and methods of use” (INTERHEALTH NUTRACEUTICALS, INC., priority 2006, dated 2017):
# “Also recorded” adds a separate entry of the source. Where two headings read alike, the source gives them in different places.
# Experiments:
# Obese Zucker rats [1] = conditions: rat, in vivo
# Obese Zucker rats [2] = test: In vivo assessment in obese Zucker rats: body weight and food intake; conditions: for Food Intake 5 wks / Food Intake 7 wks: obese Zucker rats, daily 400 μg Cr(III)/kg, mean; for Food Intake 5 wks: at 5 weeks; for Food Intake 7 wks: at 7 weeks
# Obese Zucker rats [3] = test: In vivo assessment in obese Zucker rats: blood lipid profile (total cholesterol, triglycerides, HDL); conditions: daily 400 μg Cr(III)/kg, 8 weeks, mean
# Obese Zucker rats [4] = test: In vivo assessment in obese Zucker rats: other vascular inflammation markers (cAMP, TNFα, IL-6, OxyDNA); conditions: for IL-6 / TNFα / cAMP / OxyDNA: obese Zucker rats, daily 400 μg Cr(III)/kg, 8 weeks, mean ± SE; for OxyDNA: oxidative DNA damage
# Obese Zucker rats [5] = test: In vivo assessment in obese Zucker rats: vascular inflammation markers (MCP-1, CRP, RBP-4, leptin, ICAM, adiponectin); conditions: for Leptin / RBP-4 / Adiponectin / CRP / ICAM / MCP-1 / C-reactive protein, effect in words / adiponectin levels, effect in words / intracellular adhesion molecule, effect in words / monocyte chemotactic protein-1, effect in words: obese Zucker rats, 8 weeks; for Leptin / RBP-4 / Adiponectin / CRP / ICAM / MCP-1: daily 400 μg Cr(III)/kg, mean; for Adiponectin / CRP / ICAM / MCP-1: plasma, ELISA; for C-reactive protein, effect in words / adiponectin levels, effect in words / intracellular adhesion molecule, effect in words / monocyte chemotactic protein-1, effect in words: effect of administration
# Obese Zucker rats [6] = test: In vivo assessment in obese Zucker rats: key biological parameters (fasting glucose, HbA1c, vitamin C, GSH, RBC lipid peroxidation); conditions: for RBC Lipid Peroxidase: malondialdehyde by thiobarbituric acid; for RBC Lipid Peroxidase / Fasting Glucose / GSH / HbA1c / Vitamin C / blood vitamin C levels, effect in words / fasting glucose, effect in words / glycosylated hemoglobin, effect in words / red blood cell lipid peroxidation, effect in words: obese Zucker rats, 8 weeks; for RBC Lipid Peroxidase / Fasting Glucose / GSH / HbA1c / Vitamin C: daily 400 μg Cr(III)/kg, mean; for Fasting Glucose: fasted overnight; for Vitamin C: plasma; for blood vitamin C levels, effect in words / fasting glucose, effect in words / glycosylated hemoglobin, effect in words / red blood cell lipid peroxidation, effect in words: effect of administration
# Obese Zucker rats [7] = test: In vivo assessment in obese Zucker rats: clinical chemistry (AP, BUN, CRT, AST, ALT)
# [8] = compared to chromium nicotinate-glycine-cysteine-glutamic acid GTF complex of Toepfer et al.
# [9] = listed as Chromium dinicocysteinate
# [10] = listed as chromium dinicocysteinate
# [11] = over chromium nicotinate, chromium picolinate and chromium histidinate
molecule,measurement,setting,value
"N=C(N)NCCC[C@H](N)C(=O)O [Arg, Arginine, reference compound]",ALT (Alanine Aminotransferease),Obese Zucker rats [1],179.20 u/L
same,AP (Alkaline phosphatase),Obese Zucker rats [1],35.50 u/L
same,AST (Aspartate Aminotransferase),Obese Zucker rats [1],276.80 u/L
same,BUN (Blood Urea Nitrogen),Obese Zucker rats [1],21.00 mg/dL
same,CRT (Creatinine),Obese Zucker rats [1],0.40 mg/dL
same,Total Bilirubin,Obese Zucker rats [1],0.00 mg/dL
same,Food Intake 5 wks,Obese Zucker rats [2],37.73 g/day
same,Food Intake 7 wks,Obese Zucker rats [2],46.80 g/day
same,HDL,Obese Zucker rats [3],68.69 mg/dL
same,Total Chol/HDL,Obese Zucker rats [3],2.86 ratio
same,Total Cholesterol,Obese Zucker rats [3],173.96 mg/dL
same,Triglyceride,Obese Zucker rats [3],485.74 mg/dL
same,IL-6,Obese Zucker rats [4],97.80 ± 0.93 pg/mL
same,TNFα,Obese Zucker rats [4],25.45 ± 0.93 pg/mL
same,cAMP,Obese Zucker rats [4],34.98 ± 0.92 pmol/mL
same,OxyDNA,Obese Zucker rats [4],62.90 ± 2.71 ng/mL
same,Leptin,Obese Zucker rats [5],431.72 pg/mL
same,RBP-4,Obese Zucker rats [5],47211.67 ng/mL
same,Adiponectin,Obese Zucker rats [5],9958.63 ng/mL
same,CRP,Obese Zucker rats [5],617.34 ng/mL
same,ICAM,Obese Zucker rats [5],17940.91 pg/mL
same,MCP-1,Obese Zucker rats [5],3878.85 pg/mL
same,RBC Lipid Peroxidase,Obese Zucker rats [6],2.23 nmol/mL
same,Fasting Glucose,Obese Zucker rats [6],446.60 mg/dL
same,GSH,Obese Zucker rats [6],4.77 µmol/g
same,HbA1c,Obese Zucker rats [6],15.88%
same,Vitamin C,Obese Zucker rats [6],0.14 mg %
Chromium Dinicocysteinate [Cr(nic)2Cys],"food intake vs GTF complex, in words",Obese Zucker rats [2]; [8],reduced
same,"food intake, effect in words",Obese Zucker rats [2]; effect of administration,reduction
same,Food Intake 5 wks,Obese Zucker rats [2],34.43 g/day
same,Food Intake 7 wks,Obese Zucker rats [2],38.62 g/day
same,"alkaline phosphatase activities, effect in words","Obese Zucker rats [7]; Zucker diabetic fatty rats, supplemented group",reduces
same,"ALT vs GTF complex, in words",Obese Zucker rats [7]; [8],decreased levels
same,"AST vs GTF complex, in words",Obese Zucker rats [7]; [8],decreased levels
same,"blood creatinine, effect in words",Obese Zucker rats [7]; effect of administration,reducing
same,ALT (Alanine Aminotransferease),"Obese Zucker rats [7]; obese Zucker rats, mean ± SE",99.00 u/L
same,AP (Alkaline phosphatase),"Obese Zucker rats [7]; obese Zucker rats, mean ± SE",35.15 u/L
same,Anion Gap,"Obese Zucker rats [7]; obese Zucker rats, mean ± SE",29.62
same,BUN (Blood Urea Nitrogen),"Obese Zucker rats [7]; obese Zucker rats, mean ± SE",18.23 mg/dL
same,CRT (Creatinine),"Obese Zucker rats [7]; obese Zucker rats, mean ± SE",0.41 mg/dL
same,Total Bilirubin,"Obese Zucker rats [7]; obese Zucker rats, mean ± SE",0.05 mg/dL
same,HDL,Obese Zucker rats [3],66.46 mg/dL
same,Total Cholesterol,Obese Zucker rats [3],188.46 mg/dL
same,Triglyceride,Obese Zucker rats [3],550.89 mg/dL
same,"OxyDNA vs GTF complex, in words",Obese Zucker rats [4]; [8],decreased levels
same,"TNFα vs GTF complex, in words",Obese Zucker rats [4]; [8],decreased levels
same,IL-6,Obese Zucker rats [4],95.02 ± 1.99 pg/mL
same,TNFα,Obese Zucker rats [4],17.72 ± 3.35 pg/mL
same,cAMP,Obese Zucker rats [4],33.26 ± 2.61 pmol/mL
same,"TNFα vs comparators, in words",Obese Zucker rats [4]; over chromium picolinate and chromium histidinate,lowered levels
same,OxyDNA,Obese Zucker rats [4],46.92 ± 2.24 ng/mL
same,"adiponectin vs GTF complex, in words",Obese Zucker rats [5]; [8],increased levels
same,"C-reactive protein, effect in words",Obese Zucker rats [5]; [9],reductions
same,"adiponectin levels, effect in words",Obese Zucker rats [5]; [9],elevation
same,"intracellular adhesion molecule, effect in words",Obese Zucker rats [5]; [9],reductions
same,"monocyte chemotactic protein-1, effect in words",Obese Zucker rats [5]; [9],reductions
same,"C-reactive protein, effect in words",Obese Zucker rats [5]; [10],reducing; also recorded: reductions
same,"adiponectin levels, effect in words",Obese Zucker rats [5]; [10],increases
same,"intracellular adhesion molecule, effect in words",Obese Zucker rats [5]; [10],reducing
same,"monocyte chemotactic protein-1, effect in words",Obese Zucker rats [5]; [10],reducing; also recorded: reductions
same,Leptin,Obese Zucker rats [5],407.32 pg/mL
same,RBP-4,Obese Zucker rats [5],49670.13 ng/mL
same,"C-reactive protein vs comparators, in words",Obese Zucker rats [5]; [11],decreased levels
same,"ICAM vs comparators, in words",Obese Zucker rats [5]; [11],decreased levels
same,"adiponectin vs comparators, in words",Obese Zucker rats [5]; [11],increased levels
same,"MCP-1 vs comparator, in words",Obese Zucker rats [5]; over chromium picolinate,lower levels
same,Adiponectin,Obese Zucker rats [5],12732.11 ng/mL
same,CRP,Obese Zucker rats [5],569.96 ng/mL
same,ICAM,Obese Zucker rats [5],17057.51 pg/mL
same,MCP-1,Obese Zucker rats [5],2829.17 pg/mL
same,"fasting glucose vs GTF complex, in words",Obese Zucker rats [6]; [8],decreased levels
same,"glycosylated hemoglobin vs GTF complex, in words",Obese Zucker rats [6]; [8],decreased levels
same,"red blood cell lipid peroxidation vs GTF complex, in words",Obese Zucker rats [6]; [8],decreased levels
same,"vitamin C vs GTF complex, in words",Obese Zucker rats [6]; [8],increased levels
same,RBC Lipid Peroxidase,Obese Zucker rats [6],1.81 nmol/mL
same,"blood vitamin C levels, effect in words",Obese Zucker rats [6]; [9],elevation
same,"fasting glucose, effect in words",Obese Zucker rats [6]; [9],reductions
same,"glycosylated hemoglobin, effect in words",Obese Zucker rats [6]; [9],reductions
same,"red blood cell lipid peroxidation, effect in words",Obese Zucker rats [6]; [9],reductions
same,"blood vitamin C levels, effect in words",Obese Zucker rats [6]; [10],increased
same,"fasting glucose, effect in words",Obese Zucker rats [6]; [10],reducing
same,"glycosylated hemoglobin, effect in words",Obese Zucker rats [6]; [10],reducing
same,"red blood cell lipid peroxidation, effect in words",Obese Zucker rats [6]; [10],reducing; also recorded: reduced
same,Fasting Glucose,Obese Zucker rats [6],446.24 mg/dL
same,GSH,Obese Zucker rats [6],4.74 µmol/g
same,HbA1c,Obese Zucker rats [6],14.76%
same,"fasting glucose vs comparators, in words",Obese Zucker rats [6]; [11],decreased levels
same,"glycosylated hemoglobin vs comparators, in words",Obese Zucker rats [6]; [11],decreased levels
same,"vitamin C vs comparators, in words",Obese Zucker rats [6]; [11],increased levels
same,"red blood cell lipid peroxidase vs comparator, in words",Obese Zucker rats [6]; over chromium picolinate,lower levels
same,Vitamin C,Obese Zucker rats [6],0.18 mg %
